Measured values published in paper PMC11124822, “Discovery and Anticancer Screening of Novel Oxindole-Based Derivative Bearing Pyridyl Group as Potent and Selective Dual FLT3/CDK2 Kinase Inhibitor” (Pharmaceuticals, 2024).

tested on: OVCAR-3; assay: NCI-60 antiproliferative screen (SRB); type: cell-based, human; details: Homo sapiens; 10 µM single dose, 48 h; OVCAR-3 (Ovarian); read-out: Growth inhibition (%)

Q: With `O=C1Nc2cc(Cl)ccc2C1=Cc1ccc(OCc2ccccn2)cc1` (mixture of isomers) [Compound 5h, (E/Z)-6-Chloro-3-[4-(pyridin-2-ylmethoxy)benzylidene]indolin-2-one] as the compound, how does the inhibition at 10 µM read?
A: The inhibition at 10 µM was 6.16%.

tested on: OVCAR-8; assay: NCI-60 antiproliferative screen (SRB); type: cell-based, human; details: Homo sapiens; 10 µM single dose, 48 h; OVCAR-8 (Ovarian); read-out: Growth inhibition (%)

Q: For `O=C1Nc2cc(Cl)ccc2C1=Cc1ccc(OCc2ccccn2)cc1` (mixture of isomers) [Compound 5h, (E/Z)-6-Chloro-3-[4-(pyridin-2-ylmethoxy)benzylidene]indolin-2-one], which inhibition at 10 µM is on record?
A: Its inhibition at 10 µM is 13.6%.

tested on: HCT-116; assay: NCI-60 antiproliferative screen (SRB); type: cell-based, human; details: Homo sapiens; 10 µM single dose, 48 h; HCT-116 (Colon); read-out: Growth inhibition (%)

Q: How did the inhibition at 10 µM turn out when `O=C1Nc2cc(Cl)ccc2C1=Cc1ccc(OCc2ccccn2)cc1` (mixture of isomers) [Compound 5h, (E/Z)-6-Chloro-3-[4-(pyridin-2-ylmethoxy)benzylidene]indolin-2-one] was run?
A: Its inhibition at 10 µM is 47.8%.

tested on: MDA-MB-468; assay: NCI-60 antiproliferative screen (SRB); type: cell-based, human; details: Homo sapiens; 10 µM single dose, 48 h; MDA-MB-468 (Breast); read-out: Growth inhibition (%)

Q: `O=C1Nc2cc(Cl)ccc2C1=Cc1ccc(OCc2ccccn2)cc1` (mixture of isomers) [Compound 5h, (E/Z)-6-Chloro-3-[4-(pyridin-2-ylmethoxy)benzylidene]indolin-2-one] was tested. Which inhibition at 10 µM did it give?
A: The inhibition at 10 µM was 60.8%.

tested on: OVCAR-5; assay: NCI-60 antiproliferative screen (SRB); type: cell-based, human; details: Homo sapiens; 10 µM single dose, 48 h; OVCAR-5 (Ovarian); read-out: Growth inhibition (%)

Q: `O=C1Nc2cc(Cl)ccc2C1=Cc1ccc(OCc2ccccn2)cc1` (mixture of isomers) [Compound 5h, (E/Z)-6-Chloro-3-[4-(pyridin-2-ylmethoxy)benzylidene]indolin-2-one] was tested. Which inhibition at 10 µM did it give?
A: Its inhibition at 10 µM is 15.6%.

tested on: U251; assay: NCI-60 antiproliferative screen (SRB); type: cell-based, human; details: Homo sapiens, U-251; 10 µM single dose, 48 h; U251 (CNS); read-out: Growth inhibition (%)

Q: How did the inhibition at 10 µM turn out when `O=C1Nc2cc(Cl)ccc2C1=Cc1ccc(OCc2ccccn2)cc1` (mixture of isomers) [Compound 5h, (E/Z)-6-Chloro-3-[4-(pyridin-2-ylmethoxy)benzylidene]indolin-2-one] was run?
A: Its inhibition at 10 µM is 61.6%.

tested on: OVCAR-4; assay: NCI-60 antiproliferative screen (SRB); details: Homo sapiens, OVCAR-4, 48 h, read-out: Growth inhibition (%)
Protocol: Anticancer activity was tested against 60 cancer cell lines (NCI-60) after 48h treatments with a single dosage of 10 μM of compounds by using sulforhodamine B assay [39] on the traditional 96-well platform. […] The human cancer cell lines of the NCI-60 panel are grown in RPMI 1640 medium supplemented with 5% FBS (fetal bovine serum) and 2 mM L-glutamine. […] For further analysis of promising compounds, five dose screens were performed against the NCI-60 panel. Drug treatments are performed in 5 doses using 10-fold or ½ log dose dilutions.

Q: Which inhibition at 10 µM does the source give for `O=C1Nc2cc(Cl)ccc2C1=Cc1ccc(OCc2ccccn2)cc1` (mixture of isomers) [Compound 5h, (E/Z)-6-Chloro-3-[4-(pyridin-2-ylmethoxy)benzylidene]indolin-2-one] here?
A: Its inhibition at 10 µM is 75.8%.

tested on: RXF 393; assay: NCI-60 antiproliferative screen (SRB); type: cell-based, human; details: Homo sapiens; 10 µM single dose, 48 h; RXF 393 (Renal); read-out: Growth inhibition (%)

Q: For `O=C1Nc2cc(Cl)ccc2C1=Cc1ccc(OCc2ccccn2)cc1` (mixture of isomers) [Compound 5h, (E/Z)-6-Chloro-3-[4-(pyridin-2-ylmethoxy)benzylidene]indolin-2-one], which inhibition at 10 µM is on record?
A: The inhibition at 10 µM was 38.2%.

tested on: KM12; assay: NCI-60 antiproliferative screen (SRB); type: cell-based, human; details: Homo sapiens; 10 µM single dose, 48 h; KM12 (Colon); read-out: Growth inhibition (%)

Q: How did the inhibition at 10 µM turn out when `O=C1Nc2cc(Cl)ccc2C1=Cc1ccc(OCc2ccccn2)cc1` (mixture of isomers) [Compound 5h, (E/Z)-6-Chloro-3-[4-(pyridin-2-ylmethoxy)benzylidene]indolin-2-one] was run?
A: The inhibition at 10 µM was 21.6%.

tested on: A498; assay: NCI-60 antiproliferative screen (SRB); type: cell-based, human; details: Homo sapiens; 10 µM single dose, 48 h; A498 (Renal); read-out: Growth inhibition (%)

Q: With `O=C1Nc2cc(Cl)ccc2C1=Cc1ccc(OCc2ccccn2)cc1` (mixture of isomers) [Compound 5h, (E/Z)-6-Chloro-3-[4-(pyridin-2-ylmethoxy)benzylidene]indolin-2-one] as the compound, how does the inhibition at 10 µM read?
A: The inhibition at 10 µM was -11.5%.

tested on: CAKI-1; assay: NCI-60 antiproliferative screen (SRB); type: cell-based, human; details: Homo sapiens; 10 µM single dose, 48 h; CAKI-1 (Renal); read-out: Growth inhibition (%)

Q: With `O=C1Nc2cc(Cl)ccc2C1=Cc1ccc(OCc2ccccn2)cc1` (mixture of isomers) [Compound 5h, (E/Z)-6-Chloro-3-[4-(pyridin-2-ylmethoxy)benzylidene]indolin-2-one] as the compound, how does the inhibition at 10 µM read?
A: The inhibition at 10 µM was 28.8%.

tested on: SK-MEL-2; assay: NCI-60 antiproliferative screen (SRB); type: cell-based, human; details: Homo sapiens; 10 µM single dose, 48 h; SK-MEL-2 (Melanoma); read-out: Growth inhibition (%)

Q: For `O=C1Nc2cc(Cl)ccc2C1=Cc1ccc(OCc2ccccn2)cc1` (mixture of isomers) [Compound 5h, (E/Z)-6-Chloro-3-[4-(pyridin-2-ylmethoxy)benzylidene]indolin-2-one], which inhibition at 10 µM is on record?
A: Its inhibition at 10 µM is -10.3%.

tested on: MCF7; assay: NCI-60 antiproliferative screen (SRB); type: cell-based, human; details: Homo sapiens; 10 µM single dose, 48 h; MCF7 (Breast); read-out: Growth inhibition (%)

Q: With `O=C1Nc2cc(Cl)ccc2C1=Cc1ccc(OCc2ccccn2)cc1` (mixture of isomers) [Compound 5h, (E/Z)-6-Chloro-3-[4-(pyridin-2-ylmethoxy)benzylidene]indolin-2-one] as the compound, how does the inhibition at 10 µM read?
A: Its inhibition at 10 µM is 63.7%.

tested on: UO-31; assay: NCI-60 antiproliferative screen (SRB); type: cell-based, human; details: Homo sapiens; 10 µM single dose, 48 h; UO-31 (Renal); read-out: Growth inhibition (%)

Q: `O=C1Nc2cc(Cl)ccc2C1=Cc1ccc(OCc2ccccn2)cc1` (mixture of isomers) [Compound 5h, (E/Z)-6-Chloro-3-[4-(pyridin-2-ylmethoxy)benzylidene]indolin-2-one] was tested. Which inhibition at 10 µM did it give?
A: The inhibition at 10 µM was 38%.

tested on: HCC-2998; assay: NCI-60 antiproliferative screen (SRB); type: cell-based, human; details: Homo sapiens; 10 µM single dose, 48 h; HCC-2998 (Colon); read-out: Growth inhibition (%)

Q: Which inhibition at 10 µM does the source give for `O=C1Nc2cc(Cl)ccc2C1=Cc1ccc(OCc2ccccn2)cc1` (mixture of isomers) [Compound 5h, (E/Z)-6-Chloro-3-[4-(pyridin-2-ylmethoxy)benzylidene]indolin-2-one] here?
A: The inhibition at 10 µM was 16.7%.

tested on: MALME-3M; assay: NCI-60 antiproliferative screen (SRB); type: cell-based, human; details: Homo sapiens; 10 µM single dose, 48 h; MALME-3M (Melanoma); read-out: Growth inhibition (%)

Q: `O=C1Nc2cc(Cl)ccc2C1=Cc1ccc(OCc2ccccn2)cc1` (mixture of isomers) [Compound 5h, (E/Z)-6-Chloro-3-[4-(pyridin-2-ylmethoxy)benzylidene]indolin-2-one] was tested. Which inhibition at 10 µM did it give?
A: The inhibition at 10 µM was 18%.

tested on: RPMI-8226; assay: NCI-60 antiproliferative screen (SRB); type: cell-based, human; details: Homo sapiens; 10 µM single dose, 48 h; RPMI-8226 (Leukemia); read-out: Growth inhibition (%)

Q: How did the inhibition at 10 µM turn out when `O=C1Nc2cc(Cl)ccc2C1=Cc1ccc(OCc2ccccn2)cc1` (mixture of isomers) [Compound 5h, (E/Z)-6-Chloro-3-[4-(pyridin-2-ylmethoxy)benzylidene]indolin-2-one] was run?
A: Its inhibition at 10 µM is 32.4%.

tested on: MOLT-4; assay: NCI-60 antiproliferative screen (SRB); type: cell-based; details: Homo sapiens; 10 µM single dose, 48 h; MOLT-4 (Leukemia); read-out: Growth inhibition (%)

Q: `O=C1Nc2cc(Cl)ccc2C1=Cc1ccc(OCc2ccccn2)cc1` (mixture of isomers) [Compound 5h, (E/Z)-6-Chloro-3-[4-(pyridin-2-ylmethoxy)benzylidene]indolin-2-one] was tested. Which inhibition at 10 µM did it give?
A: Its inhibition at 10 µM is 61.5%.

tested on: SF-295; assay: NCI-60 antiproliferative screen (SRB); type: cell-based, human; details: Homo sapiens; 10 µM single dose, 48 h; SF-295 (CNS); read-out: Growth inhibition (%)

Q: How did the inhibition at 10 µM turn out when `O=C1Nc2cc(Cl)ccc2C1=Cc1ccc(OCc2ccccn2)cc1` (mixture of isomers) [Compound 5h, (E/Z)-6-Chloro-3-[4-(pyridin-2-ylmethoxy)benzylidene]indolin-2-one] was run?
A: Its inhibition at 10 µM is 14.3%.

tested on: PC-3; assay: NCI-60 antiproliferative screen (SRB); type: cell-based, human; details: Homo sapiens; 10 µM single dose, 48 h; PC-3 (Prostate); read-out: Growth inhibition (%)

Q: `O=C1Nc2cc(Cl)ccc2C1=Cc1ccc(OCc2ccccn2)cc1` (mixture of isomers) [Compound 5h, (E/Z)-6-Chloro-3-[4-(pyridin-2-ylmethoxy)benzylidene]indolin-2-one] was tested. Which inhibition at 10 µM did it give?
A: Its inhibition at 10 µM is 54.7%.

tested on: M14; assay: NCI-60 antiproliferative screen (SRB); type: cell-based, human; details: Homo sapiens; 10 µM single dose, 48 h; M14 (Melanoma); read-out: Growth inhibition (%)

Q: `O=C1Nc2cc(Cl)ccc2C1=Cc1ccc(OCc2ccccn2)cc1` (mixture of isomers) [Compound 5h, (E/Z)-6-Chloro-3-[4-(pyridin-2-ylmethoxy)benzylidene]indolin-2-one] was tested. Which inhibition at 10 µM did it give?
A: Its inhibition at 10 µM is 20%.

tested on: NCI/ADR-RES; assay: NCI-60 antiproliferative screen (SRB); type: cell-based, human; details: Homo sapiens; 10 µM single dose, 48 h; NCI/ADR-RES (Ovarian); read-out: Growth inhibition (%)

Q: For `O=C1Nc2cc(Cl)ccc2C1=Cc1ccc(OCc2ccccn2)cc1` (mixture of isomers) [Compound 5h, (E/Z)-6-Chloro-3-[4-(pyridin-2-ylmethoxy)benzylidene]indolin-2-one], which inhibition at 10 µM is on record?
A: The inhibition at 10 µM was 39%.

tested on: DU-145; assay: NCI-60 antiproliferative screen (SRB); type: cell-based, human; details: Homo sapiens; 10 µM single dose, 48 h; DU-145 (Prostate); read-out: Growth inhibition (%)

Q: How did the inhibition at 10 µM turn out when `O=C1Nc2cc(Cl)ccc2C1=Cc1ccc(OCc2ccccn2)cc1` (mixture of isomers) [Compound 5h, (E/Z)-6-Chloro-3-[4-(pyridin-2-ylmethoxy)benzylidene]indolin-2-one] was run?
A: Its inhibition at 10 µM is 39.6%.

tested on: HOP-62; assay: NCI-60 antiproliferative screen (SRB); type: cell-based, human; details: Homo sapiens; 10 µM single dose, 48 h; HOP-62 (NSCLC); read-out: Growth inhibition (%)

Q: Which inhibition at 10 µM does the source give for `O=C1Nc2cc(Cl)ccc2C1=Cc1ccc(OCc2ccccn2)cc1` (mixture of isomers) [Compound 5h, (E/Z)-6-Chloro-3-[4-(pyridin-2-ylmethoxy)benzylidene]indolin-2-one] here?
A: The inhibition at 10 µM was 18.9%.

tested on: SR; assay: NCI-60 antiproliferative screen (SRB); details: Homo sapiens, 48 h, read-out: Growth inhibition (%)

Q: For `O=C1Nc2cc(Cl)ccc2C1=Cc1ccc(OCc2ccccn2)cc1` (mixture of isomers) [Compound 5h, (E/Z)-6-Chloro-3-[4-(pyridin-2-ylmethoxy)benzylidene]indolin-2-one], which inhibition at 10 µM is on record?
A: Its inhibition at 10 µM is 42.8%.

tested on: SF-539; assay: NCI-60 antiproliferative screen (SRB); type: cell-based, human; details: Homo sapiens; 10 µM single dose, 48 h; SF-539 (CNS); read-out: Growth inhibition (%)

Q: With `O=C1Nc2cc(Cl)ccc2C1=Cc1ccc(OCc2ccccn2)cc1` (mixture of isomers) [Compound 5h, (E/Z)-6-Chloro-3-[4-(pyridin-2-ylmethoxy)benzylidene]indolin-2-one] as the compound, how does the inhibition at 10 µM read?
A: Its inhibition at 10 µM is 57.7%.

tested on: UACC-257; assay: NCI-60 antiproliferative screen (SRB); type: cell-based, human; details: Homo sapiens; 10 µM single dose, 48 h; UACC-257 (Melanoma); read-out: Growth inhibition (%)

Q: `O=C1Nc2cc(Cl)ccc2C1=Cc1ccc(OCc2ccccn2)cc1` (mixture of isomers) [Compound 5h, (E/Z)-6-Chloro-3-[4-(pyridin-2-ylmethoxy)benzylidene]indolin-2-one] was tested. Which inhibition at 10 µM did it give?
A: The inhibition at 10 µM was -2.1%.

tested on: SK-MEL-28; assay: NCI-60 antiproliferative screen (SRB); type: cell-based, human; details: Homo sapiens; 10 µM single dose, 48 h; SK-MEL-28 (Melanoma); read-out: Growth inhibition (%)

Q: Which inhibition at 10 µM does the source give for `O=C1Nc2cc(Cl)ccc2C1=Cc1ccc(OCc2ccccn2)cc1` (mixture of isomers) [Compound 5h, (E/Z)-6-Chloro-3-[4-(pyridin-2-ylmethoxy)benzylidene]indolin-2-one] here?
A: Its inhibition at 10 µM is -8.02%.
